Measurements published in US20130263298A1, “MODELS FOR DIAGNOSIS, PREVENTION AND TREATMENT OF ALZHEIMER'S DISEASE” (INDIGO CAPITAL GROUP LLC, priority 2012, published 2013).

Key:
Glutathione = experiment: Fluorometric Glutathione Assay (monochlorobimane) in supplement-fed flies; format: in vivo, Drosophila melanogaster; details: optimal dose (3x), 15 days feeding, compared to the control
Procedure: For the phase-III of the experiment, a new set of Drosophila melanogaster were bred for Western blot and Glutathione assays. […] Single, triple, and six times strength for each of the three supplements were added to 25 flies each in vials along with control for 15 days. The flies were then transferred to perform the Western Blot test to check for GCLc enzyme levels for each group. […] Glutathione Detection Kit from BioVision's ApoGSH was used for an in vitro assay for detection of total glutathione changes in tissue samples. The assay used monochlorobimane (MCB), a dye that appears to form an adduct exclusively with glutathione. […] The reaction was catalysed by glutathione S-transferase. Thus, the amount of total glutathione was detected using a fluorimeter. In an embodiments of the present invention, the kit contents included Cell Lysis Buffer—25 ml, Monochlorobimane (25 mM)—200 μl, GST Reagent (50 U/ml)-200 μl, and GSH Standard (1 mg; MW: 307)—1 Vial. Monochlorobimane was dissolved in DMSO and warmed at a temperature above 18° C. for use. After opening the kit, MCB, GST, and GSH were stored at −20° C. and Cell Lysis Buffer was stored at 4° C. The GSH standard was reconstituted with 100 μl dH2O to generate 10 μg/μl standard stock solution. […] Reading: […] The sample readings were applied to the standard curve to calculate total glutathione amount in each sample. […]

Drosophila melanogaster = experiment: Phase-I lifespan of yellow-white Drosophila fed dietary supplements; format: in vivo; details: male yellow-white Drosophila, supplement at optimal RDA in diet; for increase in mean survival / longevity: vs. control (36 days)
Procedure: For the phase-I of the study, approximately 1200 male yellow-white Drosophila were bred, isolated and monitored on a daily basis. About 100 fruit flies were tested for each supplement, divided into four vials containing 25 flies each.
In an embodiment of the present invention, a mathematical formula was developed by the inventor for an optimal dosage: Recommended daily human dosage of each supplement per day, divided by 1,000,000 (average weight of a person 50 kg, average weight of 100 flies […]), multiplied by 2 as tubes are used initially for two days, multiplied by 100 as it is assumed only 1% of the food is consumed, multiplied by 4 as bulk food was made for 1 week/8 days. According to the formula, if 100 mg is the recommended human daily dosage of a supplement, the fly dose is 0.08 mg. This was considered optimal required daily allowance (RDA). The supplements were measured on the milligram gemological weighing machine and combined with the regular Drosophila diet (Carolina 424 media, yeast, water) in a temperature controlled insect culture incubator under optimal conditions. 50% survival was calculated by counting the flies that died and transferring the live flies into a different vial with newly made media every two days and near the end, every day. The observations were recorded, calculated, graphed and analysed. Two tailed t-tests were performed to test for statistical significance.

GCLc enzyme = experiment: Western Blot test for GCLc enzyme levels in supplement-fed flies; format: in vivo, Drosophila melanogaster; details: optimal dose (3x), 15 days feeding, compared to the control
Procedure: For the phase-III of the experiment, a new set of Drosophila melanogaster were bred for Western blot and Glutathione assays. […] Single, triple, and six times strength for each of the three supplements were added to 25 flies each in vials along with control for 15 days. The flies were then transferred to perform the Western Blot test to check for GCLc enzyme levels for each group. […] Details of the procedure for Western Blot are mentioned below. A western blot is a method that allows investigators to detect a specific protein in a given sample of tissue. The flies were frozen with dry ice, then standardized, lysis buffer added, homogenized and then centrifuged. The proteins were separated by their molecular weight ([…]) by SDS-PAGE, polyacrylamide gel electrophoresis. An 8% acryl amide gel was used. Smaller proteins migrate faster. Samples were loaded into the wells and a voltage of 150 Volts was applied. The proteins were transferred to a PVDF sheet of special blotting paper. The uniformity was checked by the Coomassie stain. […] A digital image of the western blot was captured using fluorescence and analysed.

Row | Structure (SMILES) | increase in glutathione (Glutathione) [%] | increase in mean survival / longevity (Drosophila melanogaster) [%] | mean survival (Drosophila melanogaster; control 36 days) [days] | increase in GCLc enzyme (GCLc enzyme) [%]
1 | Oc1ccc(C=Cc2cc(O)cc(O)c2)cc1 [Resveratrol] | 100 | 39 | 50 | 1
2 | N[C@@H](CCC(=O)N[C@@H](CS)C(=O)NCC(=O)O)C(=O)O [Glutathione] | 154 | 11 | – | 7
3 | CC(=O)N[C@@H](CS)C(=O)O [NAC, N acetyl cysteine] | – | 28 | – | –
4 | COC1=C(OC)C(=O)C(C/C=C(\C)CC/C=C(\C)CC/C=C(\C)CC/C=C(\C)CC/C=C(\C)CC/C=C(\C)CC/C=C(\C)CC/C=C(\C)CC/C=C(\C)CCC=C(C)C)=C(C)C1=O [Coenzyme Q10] | – | 11 | – | –
